Assay: xn = mol fraction of the nth substance listed
Conditions: 101 kPa, Liquid; for mass density: Vibrating tube method

CCC(C)CO (configuration not stated) [2-methyl-1-butanol] + CCO
Conditions | kinematic viscosity [m2/s] | mass density [kg/m3]
293.15 K, x1 = 0.0268 | – | 790.9
293.15 K, x1 = 0.0549 | – | 792.1
293.15 K, x1 = 0.0845 | – | 793.4
293.15 K, x1 = 0.0915 | 1.66e-06 | –
293.15 K, x1 = 0.1156 | – | 794.7
293.15 K, x1 = 0.1484 | – | 795.9
293.15 K, x1 = 0.1753 | 1.8e-06 | –
293.15 K, x1 = 0.183 | – | 797.2
293.15 K, x1 = 0.2524 | 1.92e-06 | –
293.15 K, x1 = 0.2584 | – | 799.9
293.15 K, x1 = 0.3235 | 2.04e-06 | –
293.15 K, x1 = 0.3433 | – | 802.7
293.15 K, x1 = 0.3894 | 2.17e-06 | –
293.15 K, x1 = 0.4395 | – | 805.5
293.15 K, x1 = 0.4505 | 2.32e-06 | –
293.15 K, x1 = 0.5495 | – | 808.4
293.15 K, x1 = 0.5605 | 2.67e-06 | –
293.15 K, x1 = 0.6567 | 3.06e-06 | –
293.15 K, x1 = 0.6765 | – | 811.4
293.15 K, x1 = 0.7416 | 3.47e-06 | –
293.15 K, x1 = 0.817 | 3.92e-06 | –
293.15 K, x1 = 0.8247 | – | 814.5
293.15 K, x1 = 0.8844 | 4.45e-06 | –
293.15 K, x1 = 0.9451 | 5.14e-06 | –
293.15 K, x1 = 1 | 6.11e-06 | 817.6
298.15 K, x1 = 0.0268 | – | 786.6
298.15 K, x1 = 0.0549 | – | 787.9
298.15 K, x1 = 0.0845 | – | 789.2
298.15 K, x1 = 0.0915 | 1.5e-06 | –
298.15 K, x1 = 0.1156 | – | 790.6
298.15 K, x1 = 0.1484 | – | 791.9
298.15 K, x1 = 0.1753 | 1.61e-06 | –
298.15 K, x1 = 0.183 | – | 793.2
298.15 K, x1 = 0.2524 | 1.71e-06 | –
298.15 K, x1 = 0.2584 | – | 796
298.15 K, x1 = 0.3235 | 1.82e-06 | –
298.15 K, x1 = 0.3433 | – | 798.8
298.15 K, x1 = 0.3894 | 1.93e-06 | –
298.15 K, x1 = 0.4395 | – | 801.8
298.15 K, x1 = 0.4505 | 2.06e-06 | –
298.15 K, x1 = 0.5495 | – | 804.8
298.15 K, x1 = 0.5605 | 2.36e-06 | –
298.15 K, x1 = 0.6567 | 2.69e-06 | –
298.15 K, x1 = 0.6765 | – | 807.9
298.15 K, x1 = 0.7416 | 3.04e-06 | –
298.15 K, x1 = 0.817 | 3.43e-06 | –
298.15 K, x1 = 0.8247 | – | 811
298.15 K, x1 = 0.8844 | 3.89e-06 | –
298.15 K, x1 = 0.9451 | 4.49e-06 | –
298.15 K, x1 = 1 | 5.34e-06 | 814.1
303.15 K, x1 = 0.0268 | – | 782.3
303.15 K, x1 = 0.0549 | – | 783.7
303.15 K, x1 = 0.0845 | – | 785
303.15 K, x1 = 0.0915 | 1.32e-06 | –
303.15 K, x1 = 0.1156 | – | 786.4
303.15 K, x1 = 0.1484 | – | 787.8
303.15 K, x1 = 0.1753 | 1.41e-06 | –
303.15 K, x1 = 0.183 | – | 789.2
303.15 K, x1 = 0.2524 | 1.5e-06 | –
303.15 K, x1 = 0.2584 | – | 792
303.15 K, x1 = 0.3235 | 1.59e-06 | –
303.15 K, x1 = 0.3433 | – | 795
303.15 K, x1 = 0.3894 | 1.68e-06 | –
303.15 K, x1 = 0.4395 | – | 798
303.15 K, x1 = 0.4505 | 1.8e-06 | –
303.15 K, x1 = 0.5495 | – | 801.1
303.15 K, x1 = 0.5605 | 2.06e-06 | –
303.15 K, x1 = 0.6567 | 2.35e-06 | –
303.15 K, x1 = 0.6765 | – | 804.2
303.15 K, x1 = 0.7416 | 2.66e-06 | –
303.15 K, x1 = 0.817 | 3e-06 | –
303.15 K, x1 = 0.8247 | – | 807.4
303.15 K, x1 = 0.8844 | 3.41e-06 | –
303.15 K, x1 = 0.9451 | 3.94e-06 | –
303.15 K, x1 = 1 | 4.69e-06 | 810.5
308.15 K, x1 = 0.0268 | – | 778
308.15 K, x1 = 0.0549 | – | 779.4
308.15 K, x1 = 0.0845 | – | 780.9
308.15 K, x1 = 0.0915 | 1.2e-06 | –
308.15 K, x1 = 0.1156 | – | 782.3
308.15 K, x1 = 0.1484 | – | 783.8
308.15 K, x1 = 0.1753 | 1.27e-06 | –
308.15 K, x1 = 0.183 | – | 785.2
308.15 K, x1 = 0.2524 | 1.34e-06 | –
308.15 K, x1 = 0.2584 | – | 788.1
308.15 K, x1 = 0.3235 | 1.42e-06 | –
308.15 K, x1 = 0.3433 | – | 791.2
308.15 K, x1 = 0.3894 | 1.5e-06 | –
308.15 K, x1 = 0.4395 | – | 794.3
308.15 K, x1 = 0.4505 | 1.6e-06 | –
308.15 K, x1 = 0.5495 | – | 797.5
308.15 K, x1 = 0.5605 | 1.82e-06 | –
308.15 K, x1 = 0.6567 | 2.07e-06 | –
308.15 K, x1 = 0.6765 | – | 800.7
308.15 K, x1 = 0.7416 | 2.33e-06 | –
308.15 K, x1 = 0.817 | 2.62e-06 | –
308.15 K, x1 = 0.8247 | – | 803.9
308.15 K, x1 = 0.8844 | 2.97e-06 | –
308.15 K, x1 = 0.9451 | 3.43e-06 | –
308.15 K, x1 = 1 | 4.08e-06 | 807.1
313.15 K, x1 = 0.0268 | – | 773.7
313.15 K, x1 = 0.0549 | – | 775.2
313.15 K, x1 = 0.0845 | – | 776.7
313.15 K, x1 = 0.0915 | 1.08e-06 | –
313.15 K, x1 = 0.1156 | – | 778.2
313.15 K, x1 = 0.1484 | – | 779.7
313.15 K, x1 = 0.1753 | 1.14e-06 | –
313.15 K, x1 = 0.183 | – | 781.2
313.15 K, x1 = 0.2524 | 1.2e-06 | –
313.15 K, x1 = 0.2584 | – | 784.2
313.15 K, x1 = 0.3235 | 1.26e-06 | –
313.15 K, x1 = 0.3433 | – | 787.3
313.15 K, x1 = 0.3894 | 1.33e-06 | –
313.15 K, x1 = 0.4395 | – | 790.5
313.15 K, x1 = 0.4505 | 1.41e-06 | –
313.15 K, x1 = 0.5495 | – | 793.8
313.15 K, x1 = 0.5605 | 1.6e-06 | –
313.15 K, x1 = 0.6567 | 1.8e-06 | –
313.15 K, x1 = 0.6765 | – | 797
313.15 K, x1 = 0.7416 | 2.03e-06 | –
313.15 K, x1 = 0.817 | 2.28e-06 | –
313.15 K, x1 = 0.8247 | – | 800.3
313.15 K, x1 = 0.8844 | 2.58e-06 | –
313.15 K, x1 = 0.9451 | 2.97e-06 | –
313.15 K, x1 = 1 | 3.54e-06 | 803.6
318.15 K, x1 = 0.0268 | – | 769.4
318.15 K, x1 = 0.0549 | – | 771
318.15 K, x1 = 0.0845 | – | 772.5
318.15 K, x1 = 0.0915 | 9.8e-07 | –
318.15 K, x1 = 0.1156 | – | 774.1
318.15 K, x1 = 0.1484 | – | 775.6
318.15 K, x1 = 0.1753 | 1.03e-06 | –
318.15 K, x1 = 0.183 | – | 777.2
318.15 K, x1 = 0.2524 | 1.07e-06 | –
318.15 K, x1 = 0.2584 | – | 780.3
318.15 K, x1 = 0.3235 | 1.13e-06 | –
318.15 K, x1 = 0.3433 | – | 783.5
318.15 K, x1 = 0.3894 | 1.19e-06 | –
318.15 K, x1 = 0.4395 | – | 786.8
318.15 K, x1 = 0.4505 | 1.25e-06 | –
318.15 K, x1 = 0.5495 | – | 790.1
318.15 K, x1 = 0.5605 | 1.41e-06 | –
318.15 K, x1 = 0.6567 | 1.59e-06 | –
318.15 K, x1 = 0.6765 | – | 793.4
318.15 K, x1 = 0.7416 | 1.78e-06 | –
318.15 K, x1 = 0.817 | 2e-06 | –
318.15 K, x1 = 0.8247 | – | 796.7
318.15 K, x1 = 0.8844 | 2.26e-06 | –
318.15 K, x1 = 0.9451 | 2.6e-06 | –
318.15 K, x1 = 1 | 3.09e-06 | 800.1
323.15 K, x1 = 0.0268 | – | 765.1
323.15 K, x1 = 0.0549 | – | 766.7
323.15 K, x1 = 0.0845 | – | 768.3
323.15 K, x1 = 0.0915 | 8.59e-07 | –
323.15 K, x1 = 0.1156 | – | 769.9
323.15 K, x1 = 0.1484 | – | 771.5
323.15 K, x1 = 0.1753 | 8.96e-07 | –
323.15 K, x1 = 0.183 | – | 773.1
323.15 K, x1 = 0.2524 | 9.37e-07 | –
323.15 K, x1 = 0.2584 | – | 776.3
323.15 K, x1 = 0.3235 | 9.83e-07 | –
323.15 K, x1 = 0.3433 | – | 779.6
323.15 K, x1 = 0.3894 | 1.04e-06 | –
323.15 K, x1 = 0.4395 | – | 782.9
323.15 K, x1 = 0.4505 | 1.1e-06 | –
323.15 K, x1 = 0.5495 | – | 786.3
323.15 K, x1 = 0.5605 | 1.23e-06 | –
323.15 K, x1 = 0.6567 | 1.39e-06 | –
323.15 K, x1 = 0.6765 | – | 789.7
323.15 K, x1 = 0.7416 | 1.56e-06 | –
323.15 K, x1 = 0.817 | 1.75e-06 | –
323.15 K, x1 = 0.8247 | – | 793.2
323.15 K, x1 = 0.8844 | 1.98e-06 | –
323.15 K, x1 = 0.9451 | 2.28e-06 | –
323.15 K, x1 = 1 | 2.72e-06 | 796.6
